Data as given in patent US10081624B2, “Heterocyclic compound” (Takeda Pharmaceutical Company Limited, priority 2014, dated 2018).

Assays:
HDAC1 enzyme = molecular target: T1, HDAC1 enzyme (Homo sapiens, UniProt Q13547); assay: HDAC1 enzyme inhibitory assay (HDAC-Glo I/II Assay kit); format: biochemical; details: 1 μM test compound; for inhibition at 1 µM: read-out: HDAC1 inhibitory rate (%) (1 μM)
T1 construct: prepared by transducing full length HDAC1 and HDAC6 genes into Sf-9 insect cells; GST; purchased SignalChem; host or cells: Sf-9 insect cells
T1 sequence (Q13547 whole entry): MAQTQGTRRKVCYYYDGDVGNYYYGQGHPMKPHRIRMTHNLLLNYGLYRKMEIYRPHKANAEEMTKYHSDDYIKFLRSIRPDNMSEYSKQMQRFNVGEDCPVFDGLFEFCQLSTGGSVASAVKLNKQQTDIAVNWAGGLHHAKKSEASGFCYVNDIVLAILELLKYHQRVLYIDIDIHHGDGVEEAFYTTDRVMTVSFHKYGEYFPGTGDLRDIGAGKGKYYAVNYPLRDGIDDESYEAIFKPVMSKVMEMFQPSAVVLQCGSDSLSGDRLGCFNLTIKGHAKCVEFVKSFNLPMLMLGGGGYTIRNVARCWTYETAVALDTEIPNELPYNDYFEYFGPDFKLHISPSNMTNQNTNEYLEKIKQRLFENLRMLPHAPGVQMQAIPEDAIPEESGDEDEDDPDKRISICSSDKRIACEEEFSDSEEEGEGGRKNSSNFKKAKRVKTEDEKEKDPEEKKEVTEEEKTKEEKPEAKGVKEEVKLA
Method in brief: (§1)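 Full-length GST-purified HDAC1 or HDAC6 (Sf-9 expressed) preincubated 60 min at room temperature with compound in Tris-HCl pH 7.5 buffer with glutathione and Tween-20. HDAC-Glo substrate-developer added, 20 min at room temperature, then luminescence read; inhibition relative to no-enzyme wells as 100%.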

HDAC6 enzyme = molecular target: T2, HDAC6 enzyme (Homo sapiens, UniProt Q9UBN7); assay: HDAC6 enzyme inhibitory assay (HDAC-Glo I/II Assay kit); format: biochemical; details: 1 μM test compound; for inhibition at 1 µM: read-out: HDAC6 inhibitory rate (%) (1 μM)
T2 construct: prepared by transducing full length HDAC1 and HDAC6 genes into Sf-9 insect cells; GST; purchased SignalChem; host or cells: Sf-9 insect cells
T2 sequence (Q9UBN7 1-1215): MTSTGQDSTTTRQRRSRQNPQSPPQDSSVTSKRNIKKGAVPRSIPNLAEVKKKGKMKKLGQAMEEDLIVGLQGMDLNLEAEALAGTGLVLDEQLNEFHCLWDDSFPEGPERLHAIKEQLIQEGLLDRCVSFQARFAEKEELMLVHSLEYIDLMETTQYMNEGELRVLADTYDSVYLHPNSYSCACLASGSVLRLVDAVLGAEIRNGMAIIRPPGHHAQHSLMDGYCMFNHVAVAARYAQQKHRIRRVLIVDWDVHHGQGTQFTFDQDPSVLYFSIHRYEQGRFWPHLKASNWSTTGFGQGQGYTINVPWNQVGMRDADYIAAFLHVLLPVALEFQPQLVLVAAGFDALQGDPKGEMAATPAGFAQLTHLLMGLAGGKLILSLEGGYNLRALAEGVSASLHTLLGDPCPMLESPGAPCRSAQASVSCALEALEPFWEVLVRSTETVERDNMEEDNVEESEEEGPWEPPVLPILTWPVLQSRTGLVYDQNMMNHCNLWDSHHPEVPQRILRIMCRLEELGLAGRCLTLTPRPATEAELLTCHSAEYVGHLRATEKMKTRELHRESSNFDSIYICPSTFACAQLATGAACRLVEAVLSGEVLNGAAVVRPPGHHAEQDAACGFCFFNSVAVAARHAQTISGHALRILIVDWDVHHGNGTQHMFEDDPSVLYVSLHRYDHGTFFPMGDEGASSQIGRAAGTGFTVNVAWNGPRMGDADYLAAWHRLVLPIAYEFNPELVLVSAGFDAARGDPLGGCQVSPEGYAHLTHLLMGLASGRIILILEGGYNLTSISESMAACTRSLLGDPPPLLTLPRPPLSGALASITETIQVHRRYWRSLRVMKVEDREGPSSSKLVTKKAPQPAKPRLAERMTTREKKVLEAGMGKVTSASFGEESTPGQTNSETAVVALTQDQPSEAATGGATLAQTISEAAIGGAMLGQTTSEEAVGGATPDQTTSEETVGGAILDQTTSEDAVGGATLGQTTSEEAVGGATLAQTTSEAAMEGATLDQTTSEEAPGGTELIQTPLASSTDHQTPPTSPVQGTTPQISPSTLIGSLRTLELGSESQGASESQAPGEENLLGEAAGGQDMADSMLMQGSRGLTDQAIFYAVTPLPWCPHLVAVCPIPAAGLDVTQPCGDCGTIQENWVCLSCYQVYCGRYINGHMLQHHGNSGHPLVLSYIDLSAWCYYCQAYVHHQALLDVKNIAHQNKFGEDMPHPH
Method in brief: as §1

inhibition at 1 µM (HDAC1 enzyme)	inhibition at 1 µM (HDAC6 enzyme)	HDAC1 inhibitory rate (%) (1 μM) (HDAC1 enzyme; 1 µM)	HDAC6 inhibitory rate (%) (1 μM) (HDAC6 enzyme; 1 µM)	Compound
11%	97%	–	–	O=C(NCC1COCCN1C(=O)c1cc(F)c(F)c(F)c1)c1ccc(-c2noc(C(F)(F)F)n2)cc1 (stereo in doubt) [Example 119, N-(((3R)-4-(3,4,5-trifluorobenzoyl)morpholin-3-yl)methyl)-4-(5-(trifluoromethyl)-1,2,4-oxadiazol-3-yl)benzamide]
13%	97%	–	–	O=C(NCC1COCCN1C(=O)c1cccnc1)c1ccc(-c2noc(C(F)(F)F)n2)cc1 (stereo not drawn) [Example 13, N-((4-(pyridin-3-ylcarbonyl)morpholin-3-yl)methyl)-4-(5-(trifluoromethyl)-1,2,4-oxadiazol-3-yl)benzamide]
9%	98%	–	–	Cn1nc(C(=O)N2CCOCC2CNC(=O)c2ccc(-c3noc(C(F)(F)F)n3)cc2)c2ccccc21 (stereo not drawn) [Example 18, N-((4-((1-methyl-1H-indazol-3-yl)carbonyl)morpholin-3-yl)methyl)-4-(5-(trifluoromethyl)-1,2,4-oxadiazol-3-yl)benzamide]
4%	96%	–	–	O=C(NC[C@H]1COCCN1C(=O)N1CC2C(C1)C2(F)F)c1ccc(-c2noc(C(F)(F)F)n2)cc1 (stereo partly drawn) [Example 309, N-(((3S)-4-((6,6-difluoro-3-azabicyclo[3.1.0]hex-3-yl)carbonyl)morpholin-3-yl)methyl)-4-(5-(trifluoromethyl)-1,2,4-oxadiazol-3-yl)benzamide]
17%	97%	–	–	O=C(NCC1COCCN1C(=O)c1ccccc1N1CCOCC1)c1ccc(-c2noc(C(F)(F)F)n2)cc1 (stereo in doubt) [Example 118, N-(((3R)-4-(2-(morpholin-4-yl)benzoyl)morpholin-3-yl)methyl)-4-(5-(trifluoromethyl)-1,2,4-oxadiazol-3-yl)benzamide]
8%	99%	–	–	O=C(NC[C@H]1COCCN1C(=O)N1CCCCC1CO)c1ccc(-c2noc(C(F)(F)F)n2)cc1 (stereo partly drawn) [Example 303, N-(((3S)-4-((2-(hydroxymethyl)piperidin-1-yl)carbonyl)morpholin-3-yl)methyl)-4-(5-(trifluoromethyl)-1,2,4-oxadiazol-3-yl)benzamide]
3%	87%	–	–	COC[C@@H]1CCCN1C(=O)N1CCOC[C@@H]1CNC(=O)c1ccc(-c2noc(C(F)(F)F)n2)cc1 [Example 273, N-(((3S)-4-(((2S)-2-(methoxymethyl)pyrrolidin-1-yl)carbonyl)morpholin-3-yl)methyl)-4-(5-(trifluoromethyl)-1,2,4-oxadiazol-3-yl)benzamide]
8%	101%	–	–	O=C(NC[C@H]1COCCN1C(=O)N1CCC(F)(F)CC1)c1ccc(-c2noc(C(F)(F)F)n2)cc1 [Example 277, N-(((3S)-4-((4,4-difluoropiperidin-1-yl)carbonyl)morpholin-3-yl)methyl)-4-(5-(trifluoromethyl)-1,2,4-oxadiazol-3-yl)benzamide]
18%	104%	–	–	Cc1cccc(C(=O)N2CCOCC2CNC(=O)c2ccc(-c3noc(C(F)(F)F)n3)cc2)c1 (stereo not drawn) [Example 10, N-((4-(3-methylbenzoyl)morpholin-3-yl)methyl)-4-(5-(trifluoromethyl)-1,2,4-oxadiazol-3-yl)benzamide]
17%	99%	–	–	N#Cc1cc(F)cc(C(=O)N2CCOC[C@@H]2CNC(=O)c2ccc(-c3noc(C(F)(F)F)n3)cc2)c1 [Example 40, N-(((3S)-4-(3-cyano-5-fluorobenzoyl)morpholin-3-yl)methyl)-4-(5-(trifluoromethyl)-1,2,4-oxadiazol-3-yl)benzamide]
28%	97%	–	–	O=C(NCC1COCCN1C(=O)Cc1cccs1)c1ccc(-c2noc(C(F)(F)F)n2)cc1 (stereo not drawn) [Example 21, N-((4-(2-thienylacetyl)morpholin-3-yl)methyl)-4-(5-(trifluoromethyl)-1,2,4-oxadiazol-3-yl)benzamide]
–	–	31%	96%	O=C(NCC1COCCN1C(=O)c1ccccc1)c1ccc(-c2noc(C(F)(F)F)n2)s1 (single isomer, unassigned) [Example 258, (R or S)-N-((4-benzoylmorpholin-3-yl)methyl)-5-(5-(trifluoromethyl)-1,2,4-oxadiazol-3-yl)thiophene-2-carboxamide]

Continued, molecule first:

Compound	inhibition at 1 µM (HDAC1 enzyme)	inhibition at 1 µM (HDAC6 enzyme)	HDAC1 inhibitory rate (%) (1 μM) (HDAC1 enzyme; 1 µM)	HDAC6 inhibitory rate (%) (1 μM) (HDAC6 enzyme; 1 µM)
O=C(NC[C@@H]1COCCN1C(=O)C1(c2ccccc2)CC1)c1ccc(-c2noc(C(F)(F)F)n2)cn1 [Example 208, N-(((3R)-4-((1-phenylcyclopropyl)carbonyl)morpholin-3-yl)methyl)-5-(5-(trifluoromethyl)-1,2,4-oxadiazol-3-yl)pyridine-2-carboxamide]	16%	92%	–	–
CC(C)(C(=O)N1CCOCC1CNC(=O)c1ccc(-c2noc(C(F)(F)F)n2)s1)c1ccccc1 (stereo not drawn) [Example 247, N-((4-(2-methyl-2-phenylpropanoyl)morpholin-3-yl)methyl)-5-(5-(trifluoromethyl)-1,2,4-oxadiazol-3-yl)thiophene-2-carboxamide]	18%	98%	–	–
O=C(NCC1COCCN1C(=O)C1(c2ccccc2)CC1)c1ccc(-c2noc(C(F)(F)F)n2)s1 (stereo not drawn) [Example 248, N-((4-((1-phenylcyclopropyl)carbonyl)morpholin-3-yl)methyl)-5-(5-(trifluoromethyl)-1,2,4-oxadiazol-3-yl)thiophene-2-carboxamide]	18%	97%	–	–
Cc1oncc1C(=O)N1CCOC[C@@H]1CNC(=O)c1ccc(-c2noc(C(F)(F)F)n2)cn1 [Example 193, N-(((3S)-4-((5-methyl-1,2-oxazol-4-yl)carbonyl)morpholin-3-yl)methyl)-5-(5-(trifluoromethyl)-1,2,4-oxadiazol-3-yl)pyridine-2-carboxamide]	33%	97%	–	–
O=C(NCC1COCCN1C(=O)c1ccccc1)c1ccc(-c2noc(C(F)(F)F)n2)s1 (single isomer, unassigned) [Example 257, (R or S)-N-((4-benzoylmorpholin-3-yl)methyl)-5-(5-(trifluoromethyl)-1,2,4-oxadiazol-3-yl)thiophene-2-carboxamide]	23%	97%	–	–
O=C(NC[C@H]1COCCN1C(=O)C(F)(F)c1ccccc1)c1ccc(-c2noc(C(F)(F)F)n2)cn1 [Example 207, N-(((3S)-4-(difluoro(phenyl)acetyl)morpholin-3-yl)methyl)-5-(5-(trifluoromethyl)-1,2,4-oxadiazol-3-yl)pyridine-2-carboxamide]	41%	99%	–	–
O=C(NCC1CCCCN1C(=O)c1ccccc1)c1ccc(-c2noc(C(F)(F)F)n2)cc1 (stereo not drawn) [Example 163, N-((1-benzoylpiperidin-2-yl)methyl)-4-(5-(trifluoromethyl)-1,2,4-oxadiazol-3-yl)benzamide]	25%	97%	–	–
O=C(NC[C@@H]1COCCN1C(=O)C(F)(F)c1ccccc1)c1ccc(-c2noc(C(F)(F)F)n2)s1 [Example 265, N-(((3R)-4-(difluoro(phenyl)acetyl)morpholin-3-yl)methyl)-5-(5-(trifluoromethyl)-1,2,4-oxadiazol-3-yl)thiophene-2-carboxamide]	76%	99%	–	–
Cc1nonc1C(=O)N1CCOC[C@@H]1CNC(=O)c1ccc(-c2noc(C(F)(F)F)n2)s1 [Example 260, N-(((3S)-4-((4-methyl-1,2,5-oxadiazol-3-yl)carbonyl)morpholin-3-yl)methyl)-5-(5-(trifluoromethyl)-1,2,4-oxadiazol-3-yl)thiophene-2-carboxamide]	44%	98%	–	–
